Where two headings read alike, the source gives them in different places.
Assays:
[1] = Non-compartmental plasma pharmacokinetics, phase 1b trial; assay type: in vivo; conditions: human; for AUC(0-t) / Cmax: geometric mean (CV%); for AUC(0-t): n = 8, read-out: AUC0-168h; for Tmax: median (range); for Tmax / Cmax: n = 8; for Cmax: non-compartmental
Source text: 6.3 PK/ PD assessment vari ables
6.3.1 PK Sample Collection
PK sampling will be performed according to the Schedule of Visits (Table 2, Table 4, Table 6), PK/PD Sampling Schedule (Table 3- 1, Table 3- 2, Table 5-1, Table 5- 2, Table 7-1, Table 7- 2), and ex aminations will be performed at a central laborator y. 3 m L of whole blood was collected into a […] vacutainer, plasma was separated, aliquoted and stored frozen for PK analysis of IBI362. Details of sampling methods, sample storage, transportation and analysis were provided in the Laboratory Manual provided by the central laboratory designated by the sponsor. […]
• Pharmacokinetic parameters, including but not limited to Tmax, Cmax, product under the concentration- time curve (AUC), volum e of distribution (Vd), half-life (T1/2), clearan ce (C L) an d accumulation co efficient (AR); […]

[2] = system: Chinese adults with overweight or obesity; assay: Change from baseline in body weight, BMI and waist circumference (MMRM), phase 1b trial; assay type: in vivo, human; conditions: for Participants who achieved 10% body weight loss or more / Participants who achieved 15% body weight loss or more: during the study; for Participants who achieved 10% body weight loss or more / Participants who achieved 15% body weight loss or more / CFB in BMI / CFB in body weight / CFB in waist circumference / Percent CFB in body weight: n = 8
Procedure: Secondary outcomes included pharmacokinetics, assessed by maximum observed plasma concentration (Cmax), time at which Cmax was observed (Tmax), terminal elimination half-life (t½), and area under the curve from time zero to 168 h after the first dose (AUC0–168 h) and immunogenicity, assessed by titters of anti-drug antibodies (ADAs) and neutralizing antibodies. Secondary efficacy outcomes included the change from baseline to week 12 (9 mg cohort) or week 16 (10 mg cohort) in body weight, waist circumference, BMI, as well as the change from baseline in HbA1c, lipids, transaminase and serum uric acid levels.
The sample size of 12 participants per cohort was empirically determined to provide preliminary safety, tolerability, pharmacokinetics data while minimizing the number of participants. No formal hypothesis testing was planned. Participants receiving placebo were pooled for analysis on the change from baseline in body weight, waist circumference and BMI.
The analyses for the change from baseline in body weight, waist circumference and BMI were performed using mixed-effect model for repeated measures (MMRM), with least squares mean change or mean percent change from baseline at each follow-up time analysed using a restricted maximum likelihood (REML)‐based repeated measures approach in combination with the Newton Raphson Algorithm. The MMRM included the corresponding baseline value, treatment, visit and treatment-by-visit as fixed effects and patient as a random effect, with an unstructured covariance matrix used. In case of non-converge, matrix like Variance Components and Compound Symmetry will be tested in a subsequent order until model‐convergence is achieved. The Kenward-Roger degree of freedom was used in estimating fixed effects. No missing data imputation was conducted. Point estimate of treatment difference versus placebo at week 12 for the 9 mg cohort and at week 16 for the 10 mg cohort were provided, together with corresponding 95% CI and nominal p value.

[3] = system: Chinese adults with overweight or obesity; assay: Vital signs and laboratory safety (heart rate, blood pressure, lipase, transaminases), phase 1b trial; assay type: in vivo, human; conditions: for Mean change from baseline in heart rate (maximum): placebo 4.3
Source text: The primary outcomes were safety and tolerability of mazdutide.
Summaries for other efficacy and safety variables included descriptive statistics for continuous measures (mean and standard deviation or standard error) and for categorical measures (sample size, frequency and percentages).

[4] = 9 mg cohort, week 12, LS mean (SE), MMRM
[5] = 9 mg cohort, week 12, estimate (95% CI), MMRM
[6] = 10 mg cohort, week 16, LS mean (SE), MMRM
[7] = 10 mg cohort, week 16, estimate (95% CI), MMRM

Compound `CC(C)C[C@H](NC(=O)[C@H](CC(C)C)NC(=O)[C@H](Cc1c[nH]c2ccccc12)NC(=O)[C@H](CCC(=O)O)NC(=O)[C@@H](NC(=O)[C@H](Cc1ccccc1)NC(=O)[C@H](CCC(=O)O)NC(=O)[C@H](CCCCNC(=O)COCCOCCNC(=O)COCCOCCNC(=O)CC[C@H](NC(=O)CCCCCCCCCCCCCCCCCCC(=O)O)C(=O)O)NC(=O)[C@H](C)NC(=O)[C@H](CCCCN)NC(=O)[C@H](CCCCN)NC(=O)[C@H](CCC(=O)O)NC(=O)[C@H](CC(=O)O)NC(=O)[C@H](CC(C)C)NC(=O)[C@H](Cc1ccc(O)cc1)NC(=O)[C@H](CCCCN)NC(=O)[C@H](CO)NC(=O)[C@H](Cc1ccc(O)cc1)NC(=O)[C@H](CC(=O)O)NC(=O)[C@H](CO)NC(=O)[C@@H](NC(=O)[C@H](Cc1ccccc1)NC(=O)[C@@H](NC(=O)CNC(=O)[C@H](CCC(N)=O)NC(=O)C(C)(C)NC(=O)[C@@H](N)Cc1c[nH]cn1)[C@@H](C)O)[C@@H](C)O)C(C)C)C(=O)N[C@@H](CCC(=O)O)C(=O)NCC(=O)NCC(=O)N1CCC[C@H]1C(=O)N[C@@H](CO)C(=O)N[C@@H](CO)C(=O)NCC(N)=O` [Mazdutide] has an AUC(0-t) ([1]; after first sc dose 2.5 mg) of 21800 ng·h/mL, a Tmax ([1]; after first sc dose 2.5 mg) of 72.3 h and a Cmax ([1]; after first sc dose 2.5 mg) of 179 ng/mL. For the same compound, the AUC(0-t) ([1]; after first sc dose 3 mg) was 31400 ng·h/mL, the Tmax ([1]; after first sc dose 3 mg) was 72.4 h and the Cmax ([1]; after first sc dose 3 mg) was 226 ng/mL. For the same compound, the “Participants who achieved 10% body weight loss or more” value ([2]; 9 mg cohort) was 50%, the “Participants who achieved 15% body weight loss or more” value ([2]; 9 mg cohort) was 25% and the “CFB in BMI” value [2, 4] was −3.51 (0.46) kg/m^2. The “CFB in body weight” value [2, 4] was −9.23 (1.2) kg, the “CFB in waist circumference” value [2, 4] was −5.79 (1.45) cm and the “Percent CFB in body weight” value [2, 4] was −11.7 (1.5) %. The “CFB in BMI, ETD versus pooled placebo” value [2, 5] was −2.96 (−4.37, −1.54) kg/m^2, the “CFB in body weight, ETD versus pooled placebo” value [2, 5] was −7.65 (−11.32, −3.98) kg and the “CFB in waist circumference, ETD versus pooled placebo” value [2, 5] was −5.15 (−9.63, −0.67) cm. The “Percent CFB in body weight, ETD versus pooled placebo” value [2, 5] was −9.8 (−14.4, −5.3) %, the “Participants who achieved 10% body weight loss or more” value ([2]; 10 mg cohort) was 50% and the “Participants who achieved 15% body weight loss or more” value ([2]; 10 mg cohort) was 25%. For the same compound, the “CFB in BMI” value [2, 6] was −2.96 (0.56) kg/m^2, the “CFB in body weight” value [2, 6] was −7.62 (1.39) kg and the “CFB in waist circumference” value [2, 6] was −3.36 (1.59) cm. For the same compound, the “Percent CFB in body weight” value [2, 6] was −9.5 (1.7) %, the “CFB in BMI, ETD versus placebo” value [2, 7] was −1.89 (−3.63, −0.15) kg/m^2 and the “CFB in body weight, ETD versus placebo” value [2, 7] was −4.76 (−9.10, −0.43) kg. The “CFB in waist circumference, ETD versus placebo” value [2, 7] was −1.18 (−7.65, 5.29) cm, the “Percent CFB in body weight, ETD versus placebo” value [2, 7] was −6.2 (−11.5, −0.9) % and the “Mean change from baseline in heart rate (maximum)” value ([3]; 9 mg cohort) was “up to 17.4 beats per minute”. The “Lipase level in one participant at week 16” value ([3]; 10 mg cohort, 153 U/L at baseline, upper limit of normal 300 U/L, returned to normal at safety follow-up) was 739 U/L, the “Mean change from baseline in heart rate (maximum)” value ([3]; 10 mg cohort) was ≤ 11.6 beats per minute and the “Transaminase elevation in the two participants with ALT/AST increased” value ([3]; one participant in 9 mg cohort, one in 10 mg cohort) was “mild (within three times upper limit of normal) and transient”.
